One may read the EC50 as the midpoint of the concentration-response curve.

The assay deals with T1, CFTR (F508del/MF-HBE cells) (Homo sapiens, UniProt P13569, DEL508-508).
T1 construct: human bronchial epithelial (HBE) cells derived from CF subjects heterozygous for F508del and a minimal function CFTR mutation; endogenous in cells; host or cells: primary human bronchial epithelial cells from CF subjects (F508del/MF genotype), differentiated at air-liquid interface
The assay is described as follows: Ussing chamber assay of CFTR-mediated short-circuit currents (potentiator identification). The format is cell-based. The settings on record: incubated 18-24 hours at 37° C. with 10 μM (14S)-8-[3-(2-{dispiro[2.0.2.1]heptan-7-yl}ethoxy)-1H-pyrazol-1-yl]-... trione (Compound VII), 20% human serum, read-out: CFTR-modulating activity EC50. As for the experimental part:
Ussing Chamber Assay of CFTR-mediated short-circuit currents
Ussing chamber experiments were performed using human bronchial epithelial (HBE) cells derived from CF subjects heterozygous for F508del and a minimal function CFTR mutation (F508del/MF-HBE) and cultured as previously described (Neuberger T, Burton B, Clark H, Van Goor F Methods Mol Biol 2011:741:39-54). After four days the apical media was removed, and the cells were grown at an air liquid interface for >14 days prior to use.
To isolate the CFTR-mediated short-circuit (ISC) current, F508del/MF-HBE grown on Costar® Snapwell™ cell culture inserts were mounted in an Ussing chamber and the transepithelial ISC was measured under voltage-clamp recording conditions (Vhold=0 mV) at 37° C. The basolateral solution contained (in mM) 145 NaCl, 0.83 K2HPO4, 3.3 KH2PO4, 1.2 MgCl2, 1.2 CaCl2), 10 Glucose, 10 HEPES (pH adjusted to 7.4 with NaOH) and the apical solution contained (in mM) 145 NaGluconate, 1.2 MgCl2, 1.2 CaCl2), 10 glucose, 10 HEPES (pH adjusted to 7.4 with NaOH) and 30 μM amiloride to block the epithelial sodium channel. […] The CFTR-mediated ISC (μA/cm^2) for each condition was determined from the peak forskolin response to the steady-state current following inhibition.
The activity of the CFTR potentiator compounds on the CFTR-mediated ISC was determined in Ussing chamber studies as described above. […]

T1 sequence (P13569 with tags, fused parts or gaps DEL508-508): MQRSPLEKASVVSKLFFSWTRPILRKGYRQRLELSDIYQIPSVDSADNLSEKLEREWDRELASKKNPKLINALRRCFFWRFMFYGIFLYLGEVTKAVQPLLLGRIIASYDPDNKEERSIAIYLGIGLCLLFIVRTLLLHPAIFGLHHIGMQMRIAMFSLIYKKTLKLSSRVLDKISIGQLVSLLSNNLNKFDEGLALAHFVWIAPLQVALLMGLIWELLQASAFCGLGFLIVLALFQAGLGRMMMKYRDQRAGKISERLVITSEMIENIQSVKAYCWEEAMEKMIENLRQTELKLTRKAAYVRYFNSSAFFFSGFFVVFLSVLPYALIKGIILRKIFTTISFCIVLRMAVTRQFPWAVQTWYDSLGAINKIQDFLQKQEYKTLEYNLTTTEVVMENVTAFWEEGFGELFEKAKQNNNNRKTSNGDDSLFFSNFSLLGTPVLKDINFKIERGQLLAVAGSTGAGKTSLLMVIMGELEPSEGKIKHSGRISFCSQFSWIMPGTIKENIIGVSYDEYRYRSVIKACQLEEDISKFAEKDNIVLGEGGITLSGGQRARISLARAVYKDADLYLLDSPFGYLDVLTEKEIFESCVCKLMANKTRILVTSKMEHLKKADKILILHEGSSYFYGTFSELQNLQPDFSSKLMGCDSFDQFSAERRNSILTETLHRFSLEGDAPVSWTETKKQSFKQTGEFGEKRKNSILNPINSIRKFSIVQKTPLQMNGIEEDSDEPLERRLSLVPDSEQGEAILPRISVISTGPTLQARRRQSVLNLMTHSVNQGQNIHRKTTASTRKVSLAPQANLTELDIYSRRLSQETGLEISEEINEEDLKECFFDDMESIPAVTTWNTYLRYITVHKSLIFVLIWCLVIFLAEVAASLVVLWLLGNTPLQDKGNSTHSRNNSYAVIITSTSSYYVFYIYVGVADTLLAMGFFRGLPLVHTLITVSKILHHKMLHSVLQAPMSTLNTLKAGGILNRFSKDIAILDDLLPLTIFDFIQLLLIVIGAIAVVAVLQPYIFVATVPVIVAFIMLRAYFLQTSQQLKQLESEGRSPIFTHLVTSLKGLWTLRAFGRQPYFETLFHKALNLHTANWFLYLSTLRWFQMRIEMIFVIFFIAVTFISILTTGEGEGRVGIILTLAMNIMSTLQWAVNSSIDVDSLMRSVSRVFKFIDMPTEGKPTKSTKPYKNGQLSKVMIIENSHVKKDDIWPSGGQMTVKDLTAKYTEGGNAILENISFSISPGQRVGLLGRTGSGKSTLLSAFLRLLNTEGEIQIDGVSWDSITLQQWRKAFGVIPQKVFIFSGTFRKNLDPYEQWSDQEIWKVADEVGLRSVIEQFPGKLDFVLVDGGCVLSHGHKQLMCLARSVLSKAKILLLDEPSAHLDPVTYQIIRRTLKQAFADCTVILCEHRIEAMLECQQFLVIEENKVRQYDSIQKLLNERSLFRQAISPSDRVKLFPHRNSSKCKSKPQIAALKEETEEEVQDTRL

As to `CC1(C)CCCCC[C@](O)(C(F)(F)F)C2=NN=C(O2)c2nc(c(C(F)(F)F)cc2N)N1` [Compound I, (6R)-17-amino-12,12-dimethyl-6,15-bis(trifluoromethyl)-19-oxa-3,4,13,18-tetrazatricyclo[12.3.1.12,5]nonadeca-1(18),2,4,14,16-pentaen-6-ol], the concentration for a half-maximal effect (EC50) was under 500 nM.

The values are drawn from patent publication US20250340568A1, “SOLID FORMS OF A MACROCYCLIC COMPOUNDS AS CFTR MODULATORS AND THEIR PREPARATION” (Vertex Pharmaceuticals Incorporated, priority 2022, published 2025).
